The record followed here is US8410078B2, “Composition and methods to treat cardiac diseases” (University of Connecticut, priority 2006, dated 2013).

One assay concerns WT mice. In words: Survival after LAD ligation-induced myocardial infarction in WT mice. It is filed as in vivo, mouse. Particulars: treated from two days post-infarction, up to 60 days post-infarction. The protocol:
Ligation of LAD in anesthetized mice was carried out using procedures similar to those previously described in the art. Adult WT (BL6) or P2X4R Tg mice 12-14 weeks old of either gender were anesthetized with ketamine (100 mg/kg) and xylazine (5 mg/kg) intraperitoneally. Under a dissecting microscope, mice were placed in a supine position on a heated pad to keep body temperature at 37° C. After endotracheal intubation, the cannula was connected to a small rodent ventilator (Hugo Sachs-Harvard Apparatus, Minivent Type 845, Holliston, Mass.) on room air with a stroke volume of 0.3 ml at a rate of 160 per min. A left intercostals thoracotomy was performed and myocardial infarction was produced by ligating the left anterior descending coronary artery with an 8-0 nylon suture within 2 mm below the edge of left atrium near the origin of the artery. The ligation was deemed successful when the left anterior wall turned pale and the ligation was aimed to induce a 30-40% infarct size. Animals were used according to the approved protocols of the Institutional Review Board at University of Connecticut School of Medicine.
The LAD ligation-mediated ischemic cardiomyopathy was induced in WT mice. (FIG. 26) At two days post-infarction, 15 mice were treated with […] and 19 mice were treated with NS (normal saline as the vehicle control). […]

The next assay has as its system CSQ mice. In words: Chronic mini-pump administration in CSQ mice: lifespan and cardiac hypertrophy. In kind it is in vivo, mouse. An excerpt:
Mice displaying the CSQ model of severe cardiomyopathy and heart failure were bred and maintained by methods known in the art. The CSQ transgenic (TG) mice were originally provided by Dr. Larry Jones (Krannert Institute of Cardiology, Indiana University School of Medicine, Indiana), and developed hypertrophy followed by a lethal heart failure phenotype with death near the age of 3 months. Ventricular myocytes were obtained from 3-month old wild type (WT) and CSQ mice of either sex (26 WT, 47 TG) by an enzymatic dissociation procedure. Briefly, the hearts were rapidly excised from mice that had been anesthetized with pentobarbital and treated with 1000 Units of heparin. The aorta was cannulated and the heart perfused in a Langendorff apparatus with oxygenated (95% O2/5% CO2) Ca^2+-free solution (37° C.) for 5 minutes at a rate of 2.5 ml/min. The solution composition was: 126 mM NaCl, 4.4 mM KCl, 1.0 mM MgCl2, 18 mM NaHCO3, 11 mM Glucose, 4 mM HEPES, and 3 mM BDM (2,3-butanedione monoxime), (pH 7.3 adjusted with NaOH). Thereafter, the perfusing solution was changed to that containing 25 μM CaCl2 and liberase (70 μg/ml, Roche Molecular Biochemicals, Inc.) for 8-10 minutes. Cells were sedimented by gravity for 10-15 minutes and the pellet was resuspended in 200 μM Ca^2+-containing Tyrode's solution (containing 3 mM BDM), allowed to settle for 30 minutes at room temperature, and suspended with Tyrode's solution containing: 135 mM NaCl, 5.4 mM KCl, 1.0 mM CaCl2, 1.0 mM MgCl2, 10 mM HEPES and 10 mM dextrose (pH 7.4 adjusted with NaOH). The experiments were carried out at room temperature (22-23° C.) and were completed within 4-6 hours after myocyte isolation.
Cardiac myocyte cross-section area was quantified by methods known in the art. […] The images of cross-sectioned cells showing consistently round shapes were captured with Macrofire® PictureFrame (Optronics, Goleta, Calif.) and cross-section area measured with ImageProPlus® (MediaCybernetics, Silver Spring, Md.). Typically, 50 to 100 cross-sectional areas were determined and averaged per heart. […]

Turning to `Nc1nc(Cl)nc2c1ncn2C1[C@H]2C[C@@]2(COP(=O)(O)O)[C@@H](O)[C@H]1O` (stereo partly drawn) [MRS2339, (1′S,2′R,3′S,4′R,5′S)-4-(6-amino-2-chloro-9H-purin-9-yl)-1-[phosphoryloxymethyl]bicyclo[3.1.0]hexane-2,3-diol], in the assay with WT mice, the Post-infarction survival entry was “greater than 95%”. In the assay on CSQ mice (3 μM solution, about 6 μl per day for 28 days via mini-pump), this compound came in with a Median lifespan of 115 days. Moreover, in the assay on CSQ mice (chronic mini-pump treatment), the “Cardiac myocyte cross-section area” value came to 281±15 μm^2 and the “Heart weight/body weight ratio” value worked out at 10.5±1.38.
